Test results: ChEMBL document CHEMBL4312034, “Virtual screening-driven discovery of dual 5-HT6/5-HT2A receptor ligands with pro-cognitive properties” (Eur J Med Chem, 2020)

How the values were obtained:
Assay type in all cases: cell-based
[1] = molecular target: 5-hydroxytryptamine receptor 6 (Homo sapiens, UniProt P50406); assay: Displacement of [3H]-LSD from human 5-HT6R expressed in HEK293 cells after 1 hr by microbeta plate reader analysis
[2] = molecular target: 5-hydroxytryptamine receptor 2A (Homo sapiens, UniProt P28223); assay: Binding affinity to human 5-HT2AR expressed in HEK293 cells by competitive binding assay
Chain of 5-hydroxytryptamine receptor 2A (P28223 whole entry): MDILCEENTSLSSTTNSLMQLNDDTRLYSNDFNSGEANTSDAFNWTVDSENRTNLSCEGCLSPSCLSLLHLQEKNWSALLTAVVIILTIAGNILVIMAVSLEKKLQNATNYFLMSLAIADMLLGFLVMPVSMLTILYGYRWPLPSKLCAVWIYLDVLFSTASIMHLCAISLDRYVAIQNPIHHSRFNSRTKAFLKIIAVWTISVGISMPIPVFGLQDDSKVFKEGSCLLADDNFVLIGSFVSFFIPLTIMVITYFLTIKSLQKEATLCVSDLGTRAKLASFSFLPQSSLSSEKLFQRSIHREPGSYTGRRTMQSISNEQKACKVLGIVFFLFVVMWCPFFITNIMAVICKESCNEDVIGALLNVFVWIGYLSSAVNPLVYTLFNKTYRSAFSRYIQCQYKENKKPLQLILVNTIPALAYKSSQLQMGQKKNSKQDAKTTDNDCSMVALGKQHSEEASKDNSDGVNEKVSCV

[3] = molecular target: 5-hydroxytryptamine receptor 7 (Homo sapiens, UniProt P34969); assay: Displacement of [3H]-CT from human 5-HT7 receptor expressed in HEK293 cells after 1 hr by microbeta plate reader analysis
Chain of 5-hydroxytryptamine receptor 7 (P34969 whole entry): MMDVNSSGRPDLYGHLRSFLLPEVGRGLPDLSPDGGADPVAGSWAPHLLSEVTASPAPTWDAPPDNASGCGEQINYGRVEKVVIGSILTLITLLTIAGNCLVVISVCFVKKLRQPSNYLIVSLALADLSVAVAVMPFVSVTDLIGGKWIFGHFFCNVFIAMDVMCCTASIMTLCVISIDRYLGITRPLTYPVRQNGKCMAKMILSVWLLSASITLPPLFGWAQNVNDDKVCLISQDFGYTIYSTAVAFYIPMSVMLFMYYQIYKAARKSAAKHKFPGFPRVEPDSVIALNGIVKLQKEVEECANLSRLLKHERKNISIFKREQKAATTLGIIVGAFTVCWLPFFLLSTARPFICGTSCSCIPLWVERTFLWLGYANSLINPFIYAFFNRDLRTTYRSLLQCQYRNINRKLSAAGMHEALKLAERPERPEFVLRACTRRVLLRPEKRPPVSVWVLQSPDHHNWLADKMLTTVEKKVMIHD

[4] = molecular target: T1, 5-hydroxytryptamine receptor 1A (Homo sapiens, UniProt P08908); assay: Displacement of [3H]-8-OH-DPAT from human 5-HT1A receptor expressed in HEK293 cells after 1 hr by microbeta plate reader analysis
T1 sequence (P08908 whole entry): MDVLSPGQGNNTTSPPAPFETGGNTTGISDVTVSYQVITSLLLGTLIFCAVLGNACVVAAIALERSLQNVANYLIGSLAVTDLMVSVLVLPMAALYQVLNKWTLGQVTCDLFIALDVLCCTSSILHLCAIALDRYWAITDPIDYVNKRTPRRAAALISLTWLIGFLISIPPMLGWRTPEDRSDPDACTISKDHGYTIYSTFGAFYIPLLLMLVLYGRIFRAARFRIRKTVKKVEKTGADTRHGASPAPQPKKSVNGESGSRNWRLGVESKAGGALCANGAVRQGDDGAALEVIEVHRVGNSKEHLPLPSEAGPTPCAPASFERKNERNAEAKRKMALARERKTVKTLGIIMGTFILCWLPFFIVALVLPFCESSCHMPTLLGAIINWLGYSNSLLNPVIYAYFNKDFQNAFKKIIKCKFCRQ

D(2) dopamine receptor = D(2) dopamine receptor (Homo sapiens, UniProt P14416); assay: Displacement of [3H]-raclopride from human D2R expressed in HEK293 cells after 1 hr by microbeta plate reader analysis
Chain of D(2) dopamine receptor (P14416 whole entry): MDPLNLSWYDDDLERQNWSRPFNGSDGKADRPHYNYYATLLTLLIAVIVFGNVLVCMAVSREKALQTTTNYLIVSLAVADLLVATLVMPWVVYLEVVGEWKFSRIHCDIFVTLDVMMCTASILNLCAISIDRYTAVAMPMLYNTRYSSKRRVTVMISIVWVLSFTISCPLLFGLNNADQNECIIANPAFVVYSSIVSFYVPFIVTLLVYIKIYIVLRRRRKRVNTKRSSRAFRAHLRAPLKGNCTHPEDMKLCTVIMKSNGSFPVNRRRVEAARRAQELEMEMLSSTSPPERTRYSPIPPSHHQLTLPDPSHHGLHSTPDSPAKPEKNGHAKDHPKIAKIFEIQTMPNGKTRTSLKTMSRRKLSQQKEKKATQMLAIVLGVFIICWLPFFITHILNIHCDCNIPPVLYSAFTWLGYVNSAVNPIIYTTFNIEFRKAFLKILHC

Chain of 5-hydroxytryptamine receptor 6 (P50406 whole entry): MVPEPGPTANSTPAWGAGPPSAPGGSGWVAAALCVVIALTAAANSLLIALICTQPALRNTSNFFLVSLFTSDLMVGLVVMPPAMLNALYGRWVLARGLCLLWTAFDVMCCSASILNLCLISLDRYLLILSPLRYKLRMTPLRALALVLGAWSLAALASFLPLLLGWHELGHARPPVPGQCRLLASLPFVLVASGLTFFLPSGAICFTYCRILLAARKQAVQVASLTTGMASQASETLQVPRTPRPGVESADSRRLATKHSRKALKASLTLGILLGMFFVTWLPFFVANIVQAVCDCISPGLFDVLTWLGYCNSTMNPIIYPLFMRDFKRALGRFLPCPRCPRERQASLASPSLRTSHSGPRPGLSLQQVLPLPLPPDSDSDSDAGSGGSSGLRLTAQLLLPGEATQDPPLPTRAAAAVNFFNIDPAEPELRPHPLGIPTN

Row | SMILES | Ki [1] [nM] | Ki [2] [nM] | Ki [3] [nM] | Ki [4] [nM] | Ki (D(2) dopamine receptor) [nM]
1 | COc1cccc2[nH]cc(CCNCc3ccc(-c4ccc(F)cc4)o3)c12 | 132 | – | – | – | –
2 | c1coc(-c2ccc(CNCCc3c[nH]c4ccccc34)o2)c1 | 419 | – | – | – | –
3 | COc1ccc2[nH]cc(CCNCc3ccc(-c4cc(Cl)cc(Cl)c4)o3)c2c1 | 210 | – | – | – | –
4 | COc1cccc2[nH]cc(CCNCc3ccc(-c4ccc(O)cc4)o3)c12 | 14 | 131 | 2100 | 732 | 178
5 | COc1cccc(-c2ccc(CNCCc3c[nH]c4ccc(OC)cc34)o2)c1 | 76 | 216 | 871 | 91 | –
6 | CN(CCc1c[nH]c2ccccc12)Cc1ccc(-c2ccccc2)o1 | 61 | 199 | 525 | 775 | 368
7 | Oc1ccc(-c2ccc(CNCCc3coc4ccc(F)cc34)o2)cc1 | 522 | – | – | – | –
8 | CC(=O)Oc1ccc(-c2ccc(CNCCc3c[nH]c4ccccc34)o2)cc1 | 1460 | – | – | – | –
9 | COc1ccc2[nH]cc(CCNCc3ccc(-c4cn[nH]c4)o3)c2c1 | 121 | 28 | 1500 | 146 | 1730
10 | c1ccc2c(-c3ccc(CNCCc4c[nH]c5ccccc45)o3)cccc2c1 | 201 | – | – | – | –
11 | COc1cccc(-c2ccc(CNCCc3c[nH]c4cccc(OC)c34)o2)c1 | 247 | – | – | – | –
12 | c1ccc(-c2ccc(CNCCc3c[nH]c4ccccc34)[nH]2)cc1 | 264 | – | – | – | –
13 | COc1cccc(-c2ccc(CNC(C)Cc3cn(C)c4ccccc34)o2)c1 (stereo unspecified) | 1030 | – | – | – | –
14 | Clc1cccc(-c2ccc(CNCCc3c[nH]c4ccccc34)o2)c1 | 185 | – | – | – | –
15 | c1ccc(-c2ccc(CNCCc3c[nH]c4ccccc34)s2)cc1 | 152 | – | – | – | –
16 | Clc1cc(Cl)cc(-c2ccc(CNCCc3c[nH]c4ccccc34)o2)c1 | 266 | – | – | – | –
17 | COc1cccc(-c2ccc(CNCCc3cn(C)c4ccccc34)o2)c1 | 556 | – | – | – | –
18 | Oc1ccc(-c2ccc(CNCCc3c[nH]c4cc(F)ccc34)o2)cc1 | 2 | 96 | 2730 | 202 | 446

Row | SMILES | Ki [1] [nM] | Ki [2] [nM] | Ki [3] [nM] | Ki [4] [nM] | Ki (D(2) dopamine receptor) [nM]
19 | COc1ccc2[nH]cc(CCNCc3ccc(-c4cccc(O)c4)o3)c2c1 | 55 | 29 | 3150 | 64 | 391
20 | Cc1ccc2[nH]cc(CCNCc3ccc(-c4ccc(O)cc4)o3)c2c1 | 5 | 22 | 51 | 399 | –
21 | COc1ccc(-c2ccc(CNCCc3c[nH]c4ccc(OC)cc34)o2)cc1 | 90 | 35 | 3300 | 334 | 1360
22 | O=[N+]([O-])c1ccc(-c2ccc(CNCCc3c[nH]c4ccccc34)o2)cc1 | 774 | – | – | – | –
23 | COc1ccc2occ(CCNCc3ccc(-c4ccc(O)cc4)o3)c2c1 | 1700 | – | – | – | –
24 | Oc1ccc(-c2ccc(CNCCc3c[nH]c4ccc(Cl)cc34)o2)cc1 | 60 | 33 | – | 431 | –
25 | COc1ccc2[nH]cc(CC(C)NCc3ccc(-c4ccc(O)cc4)o3)c2c1 (stereo unspecified) | 345 | – | – | – | –
26 | Cn1cc(CCNCc2ccc(-c3ccccc3)o2)c2ccccc21 | 303 | – | – | – | –
27 | COc1cccc2[nH]cc(CCNCc3ccc(-c4ccccc4)o3)c12 | 109 | – | – | – | –
28 | Oc1ccc(-c2ccc(CNCCc3c[nH]c4ncccc34)o2)cc1 | 531 | – | – | – | –
29 | COc1ccc2[nH]cc(CCNCc3ccc(-c4cnc5ccccc5c4)o3)c2c1 | 101 | 843 | 9860 | 1050 | 1020
30 | c1ccc2c(-c3ccc(CNCCc4c[nH]c5ccccc45)s3)cccc2c1 | 418 | – | – | – | –
31 | CCCN(CCc1c[nH]c2ccccc12)Cc1ccc(-c2ccccc2)o1 | 334 | – | – | – | –
32 | c1ccc2c(CCNCc3ccc(-c4ccc5c(c4)OCO5)o3)c[nH]c2c1 | 220 | – | – | – | –
33 | CC(C)Oc1cccc(-c2ccc(CNCCc3c[nH]c4ccccc34)o2)c1 | 486 | – | – | – | –
34 | COc1ccc(-c2ccc(CNCCc3c[nH]c4ccccc34)o2)cc1OC | 693 | – | – | – | –
35 | CC(Cc1c[nH]c2ccccc12)NCc1ccc(-c2ccc(O)cc2)o1 (stereo unspecified) | 475 | – | – | – | –
